These results are taken from ChEMBL document CHEMBL4689842, “EUbOPEN Chemogenomics Library wave 1” (2021).

The structures appear in SMILES notation.

The subject of the series is Fibroblast. Kind of series: Incucyte cell viability with human fibroblast. Also: filed as whole numbers so only -1 and 0 and 1 occur. The note with it: 10 µM, compound concentration 10 uM. It is filed as toxicity, cell-based.
[1] abbreviates: 0 h, replicate number 1, timepoint 0 hours.
[2] abbreviates: 6 h, replicate number 1, timepoint 6 hours.
[3] abbreviates: 12 h, replicate number 1, timepoint 12 hours.
[4] abbreviates: 18 h, replicate number 1, timepoint 18 hours.
The mark [5] stands for this setting: 24 h, replicate number 1, timepoint 24 hours.
Setting [6] is: 6 h, replicate number 2, timepoint 6 hours.
[7] abbreviates: 12 h, replicate number 2, timepoint 12 hours.
Where [8] appears, read: 18 h, replicate number 2, timepoint 18 hours.
The mark [9] stands for this setting: 24 h, replicate number 2, timepoint 24 hours.
[10] abbreviates: 0 h, replicate number 2, timepoint 0 hours.

As to `CC(C)c1noc(N2CCC(COc3ccc(-c4ccc(S(C)(=O)=O)cc4)nc3)CC2)n1` [GSK-1292263], the “Growth Rate” value reads like this: under setting [1], 0; under setting [2], 0; under setting [3], 0; under setting [4], 0; under setting [5], 0.
Regarding `CC(C)OC(=O)N1CCC(Oc2ncnc3c2cnn3-c2ccc(S(C)(=O)=O)cc2F)CC1`, the “Growth Rate” value under setting [1] was found to be 0; the “Growth Rate” value under setting [2] came out at 1; the “Growth Rate” value under setting [6] turned out to be 0; the “Growth Rate” value under setting [3] amounted to 1; the “Growth Rate” value under setting [7] came out at 0; the “Growth Rate” value under setting [4] was 1. Moreover, the “Growth Rate” value under setting [8] was found to be 0 and the “Growth Rate” value under setting [5] turned out to be 0.
Regarding `C=CC(=O)Nc1ccc2[nH]c(=O)n(C3CCN(Cc4ccc(-c5nc6cc[nH]c(=O)c6cc5-c5ccccc5)cc4)CC3)c2c1` [Borussertib], the “Growth Rate” value came out at 0 under setting [1]; 0 under setting [6]; 1 under setting [3]; 1 under setting [4]; 0 under setting [8]; 1 under setting [5]. The “Growth Rate” value under setting [9] is 0.
On to `CNCc1ccccc1-c1csc([C@@H](C)Nc2nc(C)nc3cc(OC)c(OC)cc23)c1` [BAY-293], for which the “Growth Rate” value is 0 under setting [2], 0 under setting [3], 0 under setting [4] and 0 under setting [5].
Take `CCc1ccc(OCc2ccccc2C(=O)Nc2ccc3nc(C)cc(N)c3c2)cc1.Cl`: the “Growth Rate” value by setting is: under setting [1], 0; under setting [2], 0; under setting [3], 0; under setting [4], 0; under setting [5], 0.
Take `C=CC(=O)Nc1cccc(Oc2nc(Nc3ccc(N4CCN(C)CC4)cc3OC)ncc2Cl)c1`: the “Growth Rate” value is given as 0 under setting [2], 0 under setting [3], 0 under setting [4] and 0 under setting [5].
`CC1=C(C(=O)Nc2cc3cn[nH]c3cc2F)C(c2ccc(C(F)(F)F)cc2)CC(=O)N1` (centres undefined): the “Growth Rate” value was 0 under setting [1] and 1 under setting [5].
`CCc1nn(CCCN2CCN(c3cccc(Cl)c3)CC2)c(=O)n1CCOc1ccccc1.Cl` [NEFAZODONE HYDROCHLORIDE]: the “Growth Rate” value reads like this: under setting [1], 0; under setting [2], 0; under setting [3], 0; under setting [4], 0; under setting [5], 0.
As for `COc1cc(Nc2nccc(-c3cnn4nc(OC)ccc34)n2)cc(C(F)(F)F)c1`, the “Growth Rate” value under setting [2] came to 0, the “Growth Rate” value under setting [3] turned out to be 0, the “Growth Rate” value under setting [4] came to 0 and the “Growth Rate” value under setting [5] is listed as 0.
Consider `Cc1nc(N2CC[C@H](O)C2)ncc1-c1cc(C(F)(F)F)cc2[nH]ncc12`, for which the “Growth Rate” value reads like this: under setting [1], 0; under setting [2], 1; under setting [6], 0; under setting [3], 0; under setting [4], 0; under setting [5], 0.
Consider `CC(C)(C)NC[C@H](O)COc1nsnc1N1CCOCC1` [TIMOLOL], for which the “Growth Rate” value runs as follows: under setting [1], 0; under setting [10], 1; under setting [2], 1; under setting [6], 0; under setting [3], 1; under setting [7], 0. For the same compound, the “Growth Rate” value reads like this: under setting [4], 1; under setting [8], 0; under setting [5], 1; under setting [9], 0.
Consider `COc1ccc(-c2ccc3ncc4c(c3c2)n(-c2ccc(N3CCNCC3)c(C(F)(F)F)c2)c(=O)n4C)cn1.O=C(O)/C=C\C(=O)O` [BGT-226], for which the “Growth Rate” value runs as follows: under setting [1], 0; under setting [2], 0; under setting [3], 0; under setting [4], 0; under setting [5], 0.
Turning to `CNC(=O)Nc1ccc(-c2nc(N3CC4CCC(C3)O4)c3cnn(C4CCC5(CC4)OCCO5)c3n2)cc1`, the “Growth Rate” value reads like this: under setting [1], 1; under setting [10], 0; under setting [2], 0; under setting [3], 0; under setting [4], 0; under setting [5], 0.
As for `O=c1cc(N2CCOCC2)oc2c(-c3cccc4c3sc3ccccc34)cccc12`, the “Growth Rate” value reads like this: under setting [10], 0; under setting [2], 0; under setting [3], 0; under setting [4], 0; under setting [8], 1; under setting [5], 0. Under setting [9], the “Growth Rate” value came to 1.
With `Cc1ccc2c(c1)c1c(n2CCc2ccc(C)nc2)CCN(C)C1` [LATREPIRDINE], the “Growth Rate” value is on record as 0 under setting [1]; 1 under setting [2]; 0 under setting [6]; 0 under setting [3]; 0 under setting [4]; 0 under setting [5].
As to `Cc1cc(NC(=O)c2cccc(S(F)(F)(F)(F)F)c2)cc(-n2ccn3nc(-c4cccnc4)cc23)c1` [BAY-309], the “Growth Rate” value is, setting by setting: under setting [1], 1; under setting [2], 0; under setting [3], 0; under setting [4], 0; under setting [5], 0.
As for `Cl.O=C(O)c1cc(-c2ccc(C3CCNCC3)cc2)c2ccc(-c3ccc(C(F)(F)F)cc3)cc2c1`, the “Growth Rate” value runs as follows: under setting [1], 0; under setting [6], 0; under setting [3], 1; under setting [7], 0; under setting [4], 1; under setting [8], 0. The “Growth Rate” value runs as follows: under setting [5], 1; under setting [9], 0.
For `CCCSc1nc(N[C@@H]2C[C@H]2c2ccc(F)c(F)c2)c2nnn([C@@H]3C[C@H](OCCO)[C@@H](O)[C@H]3O)c2n1` [TICAGRELOR], the “Growth Rate” value came to 0 under setting [1]; 0 under setting [2]; 0 under setting [3]; 0 under setting [4]; 0 under setting [5].
Turning to `CC(C)CC(=O)Nc1[nH]nc2c1CN(C(=O)C1CCN(C)CC1)C2(C)C` [PHA-793887], the “Growth Rate” value under setting [1] came to 0; the “Growth Rate” value under setting [2] stood at 0; the “Growth Rate” value under setting [3] stood at 0; the “Growth Rate” value under setting [4] was found to be 0; the “Growth Rate” value under setting [5] stood at 0.
With `C=CC(=O)Nc1cccc(Sc2nc(Nc3ccc(N4CCN(C)CC4)cc3)ncc2Cl)c1`, the “Growth Rate” value is, setting by setting: under setting [2], 0; under setting [3], 0; under setting [4], 0; under setting [5], 0.
With `Cc1cccc(CN2CCN(C(c3ccccc3)c3ccc(Cl)cc3)CC2)c1.Cl.Cl` (centres undefined), the “Growth Rate” value is recorded as 0 under setting [1]; 1 under setting [3]; 0 under setting [7]; 1 under setting [4]; 0 under setting [8]; 0 under setting [5].
Take `CN(c1ccccc1CNc1nc(Nc2ccc3c(c2)CC(=O)N3)ncc1C(F)(F)F)S(C)(=O)=O`: the “Growth Rate” value reads like this: under setting [1], 1; under setting [10], 0; under setting [3], 1; under setting [4], 0; under setting [8], 1; under setting [5], 0.
Consider `O=c1[nH]c2ccccc2n1C1CCN(Cc2ccc(-c3[nH]c4cc5ncnc5cc4nc3-c3ccccc3)cc2)CC1`, for which the “Growth Rate” value under setting [10] came to 0, the “Growth Rate” value under setting [3] came to 1, the “Growth Rate” value under setting [4] was found to be 0 and the “Growth Rate” value under setting [5] is 0.
Take `Cc1c[nH]c2nccc(Oc3c(F)cc(Nc4cc(Cl)nc(N)n4)cc3F)c12` [BAY-549]: the “Growth Rate” value is, setting by setting: under setting [1], 0; under setting [3], 0; under setting [7], 1; under setting [4], 0; under setting [5], 0.
As for `O=C(c1cc2c(cc1F)OC(c1ccc(F)cc1)(c1ccc(Cl)cc1Cl)O2)N1CCOCC1` (centres undefined), the “Growth Rate” value worked out at 0 under setting [1]; 0 under setting [7]; 1 under setting [4]; 0 under setting [8]; 1 under setting [5]; 0 under setting [9].
For the compound `CN1CCN(Cc2ccc(Nc3ncc(Cl)c(Nc4ccccc4S(=O)(=O)N(C)C)n3)cc2)CC1` [DUBERMATINIB], the “Growth Rate” value by setting is: under setting [1], 0; under setting [3], 1; under setting [7], 0; under setting [4], 0; under setting [5], 0.
`CN1CCN(Cc2cc(NC(=O)c3ccc4c(c3)CN(c3ccccc3)CC4)cc(C(F)(F)F)c2)CC1`: the “Growth Rate” value is listed as 1 under setting [10]; 0 under setting [2]; 0 under setting [3]; 0 under setting [4]; 0 under setting [5].
`COc1ccccc1CN[C@H]1C2CCN(CC2)[C@H]1C(c1ccccc1)c1ccccc1` [CP-96345]: the “Growth Rate” value by setting is: under setting [1], 0; under setting [6], 0; under setting [3], 1; under setting [7], 0; under setting [4], 1; under setting [8], 0. In addition, the “Growth Rate” value came out at 1 under setting [5] and 0 under setting [9].
Regarding `CNC(=O)c1ccc(Nc2ncc(C(F)(F)F)c(NCc3nccnc3N(C)S(C)(=O)=O)n2)cc1` [DEFACTINIB], the “Growth Rate” value under setting [1] was 0; the “Growth Rate” value under setting [10] amounted to 1; the “Growth Rate” value under setting [6] stood at 1; the “Growth Rate” value under setting [3] turned out to be 0; the “Growth Rate” value under setting [7] was 1; the “Growth Rate” value under setting [4] is reported as 0. Also, under setting [5], the “Growth Rate” value worked out at 0.
Turning to `CC(C)Oc1ccccc1C(=O)Nc1ccccc1C(=O)Nc1cccc(S(=O)(=O)C(F)(F)F)c1`, the “Growth Rate” value under setting [1] is recorded as 0 and the “Growth Rate” value under setting [5] is on record as 1.
With `Cc1cc(C)c(-n2ccn3nc(-c4cccnc4)cc23)cc1NC(=O)c1cc(C#N)cc(S(F)(F)(F)(F)F)c1` [BAY-826], the “Growth Rate” value turned out to be 0 under setting [1]; 1 under setting [2]; 1 under setting [3]; 1 under setting [4]; 1 under setting [5].
For the compound `CNC(=O)Nc1ccc2c(c1)[C@@]1(CC2)OC(=O)N(CC(=O)N(Cc2ccc(F)cc2)[C@@H](C)C(F)(F)F)C1=O` [A-486], the “Growth Rate” value is 0 under setting [10]; 0 under setting [2]; 0 under setting [3]; 1 under setting [7]; 0 under setting [4]; 1 under setting [8]. The “Growth Rate” value under setting [5] was 0.
For `COC(=O)C1=C(C)NC(C)=C(C(=O)OCCCN2CCC(c3ccccc3)(c3ccccc3)CC2)[C@H]1c1cccc([N+](=O)[O-])c1` [NIGULDIPINE], the “Growth Rate” value is 0 under setting [1]; 0 under setting [2]; 0 under setting [3]; 0 under setting [4]; 1 under setting [8]; 0 under setting [5]. The “Growth Rate” value under setting [9] is 1.
As for `C[C@]12CC[C@@H]3c4ccc(O)cc4CC[C@H]3[C@@H]1CC[C@@H]2O` [ESTRADIOL], the “Growth Rate” value under setting [1] amounted to 0; the “Growth Rate” value under setting [2] amounted to 0; the “Growth Rate” value under setting [3] is reported as 0; the “Growth Rate” value under setting [4] is listed as 0; the “Growth Rate” value under setting [5] is listed as 0.
